Results from ChEMBL document CHEMBL1201862, “PubChem BioAssay data set” (2004).
Activity calls are given as the source filed them.

Experiments:
[1] = target: T1, Photoreceptor-specific nuclear receptor (Homo sapiens, UniProt Q9Y5X4); type: functional, cell-based;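 also: CHO-S cells with Gal4-NCOR and VP16-NR2E3 two-hybrid luciferase reporter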
Estrogen receptor = target: T2, Estrogen receptor (Homo sapiens, UniProt P03372); assay: ERα coactivator recruitment enhancers – biochemical, TR-FRET, ERα LBD, dose response (AID 737)
T2 sequence (P03372 whole entry): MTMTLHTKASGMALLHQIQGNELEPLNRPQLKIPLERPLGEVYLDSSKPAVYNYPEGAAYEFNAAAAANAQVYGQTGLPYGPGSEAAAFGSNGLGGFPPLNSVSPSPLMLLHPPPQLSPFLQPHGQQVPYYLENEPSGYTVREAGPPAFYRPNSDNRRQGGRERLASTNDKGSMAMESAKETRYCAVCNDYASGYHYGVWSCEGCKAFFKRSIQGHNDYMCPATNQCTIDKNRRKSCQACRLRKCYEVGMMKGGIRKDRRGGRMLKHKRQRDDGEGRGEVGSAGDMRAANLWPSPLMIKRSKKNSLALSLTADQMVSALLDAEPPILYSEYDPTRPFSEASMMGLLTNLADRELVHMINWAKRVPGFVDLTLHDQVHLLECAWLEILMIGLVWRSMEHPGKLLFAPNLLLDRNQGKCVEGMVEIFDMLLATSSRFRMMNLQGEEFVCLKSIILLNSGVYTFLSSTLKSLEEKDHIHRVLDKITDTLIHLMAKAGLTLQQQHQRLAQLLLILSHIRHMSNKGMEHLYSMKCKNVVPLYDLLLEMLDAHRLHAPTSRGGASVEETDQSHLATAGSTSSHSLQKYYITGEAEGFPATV

[2] = inhibition of ADAM10 peptide cleavage – biochemical, FRET peptide substrate, recombinant human ADAM10, selectivity assay for ADAM17 exosite inhibitor project, dose response (AID 743259);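 also: ADAM10 enzyme cleaving a FRET peptide substrate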
[3] = target: Disintegrin and metalloproteinase domain-containing protein 17 (Homo sapiens, UniProt P78536); assay: exosite inhibitors of ADAM17, dose response, biochemical (AID 743260)
Disintegrin and metalloproteinase domain-containing protein 17, sequence (P78536 whole entry, the tested form may be a part): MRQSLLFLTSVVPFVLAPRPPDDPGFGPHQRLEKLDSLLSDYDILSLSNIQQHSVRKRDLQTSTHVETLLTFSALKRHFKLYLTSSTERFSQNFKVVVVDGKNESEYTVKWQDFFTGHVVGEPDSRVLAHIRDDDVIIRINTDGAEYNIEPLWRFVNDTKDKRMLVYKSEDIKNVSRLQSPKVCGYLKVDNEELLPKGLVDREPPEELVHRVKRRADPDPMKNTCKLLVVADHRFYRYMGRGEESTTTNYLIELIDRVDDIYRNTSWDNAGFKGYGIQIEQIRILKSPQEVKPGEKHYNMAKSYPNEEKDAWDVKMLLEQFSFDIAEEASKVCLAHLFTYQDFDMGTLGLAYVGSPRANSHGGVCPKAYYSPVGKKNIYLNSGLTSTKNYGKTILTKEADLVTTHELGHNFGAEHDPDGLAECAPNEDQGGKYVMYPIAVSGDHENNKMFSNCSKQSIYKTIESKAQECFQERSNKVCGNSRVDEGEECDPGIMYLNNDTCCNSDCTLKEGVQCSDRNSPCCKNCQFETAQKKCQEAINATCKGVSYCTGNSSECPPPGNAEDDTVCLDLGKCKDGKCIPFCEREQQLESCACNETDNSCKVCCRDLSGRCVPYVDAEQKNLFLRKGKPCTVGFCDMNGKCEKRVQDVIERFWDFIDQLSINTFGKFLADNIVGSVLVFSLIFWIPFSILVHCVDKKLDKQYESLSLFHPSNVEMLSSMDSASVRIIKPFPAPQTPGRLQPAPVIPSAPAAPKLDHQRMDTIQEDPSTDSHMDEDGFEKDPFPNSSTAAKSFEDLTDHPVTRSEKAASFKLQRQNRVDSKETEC

[4] = target: Mitogen-activated protein kinase 10 (Homo sapiens, UniProt P53779); assay: Dose response biochemical screening assay for inhibitors of c-Jun N-Terminal Kinase 3 (JNK3). [Related pubchem assays: 746 ]
Mitogen-activated protein kinase 10, sequence (P53779 whole entry): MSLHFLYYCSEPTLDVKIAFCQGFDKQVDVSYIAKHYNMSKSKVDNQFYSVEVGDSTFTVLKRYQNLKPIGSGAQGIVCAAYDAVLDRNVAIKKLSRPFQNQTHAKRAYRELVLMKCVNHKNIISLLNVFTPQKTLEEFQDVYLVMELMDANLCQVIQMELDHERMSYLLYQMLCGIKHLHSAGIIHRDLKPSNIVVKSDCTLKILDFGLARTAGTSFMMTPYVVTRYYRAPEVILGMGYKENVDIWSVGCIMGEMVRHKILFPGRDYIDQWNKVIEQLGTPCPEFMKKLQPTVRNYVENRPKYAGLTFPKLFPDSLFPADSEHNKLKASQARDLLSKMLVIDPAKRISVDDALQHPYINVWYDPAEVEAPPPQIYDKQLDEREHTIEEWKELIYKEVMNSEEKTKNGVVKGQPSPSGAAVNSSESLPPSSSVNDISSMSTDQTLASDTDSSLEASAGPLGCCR

[5] = microbe, parasite or virus in culture; type: functional; details: Mycobacterium tuberculosis
[6] = M. tuberculosis growth inhibition, HTS (AID 449762); type: functional
Beta-galactosidase = Beta-galactosidase (Escherichia coli, UniProt Q8VNN2); assay: Dose response counterscreen for EBI2 assay utilizing the enzyme, b-galactosidase.; type: functional
Beta-galactosidase, sequence (Q8VNN2 whole entry): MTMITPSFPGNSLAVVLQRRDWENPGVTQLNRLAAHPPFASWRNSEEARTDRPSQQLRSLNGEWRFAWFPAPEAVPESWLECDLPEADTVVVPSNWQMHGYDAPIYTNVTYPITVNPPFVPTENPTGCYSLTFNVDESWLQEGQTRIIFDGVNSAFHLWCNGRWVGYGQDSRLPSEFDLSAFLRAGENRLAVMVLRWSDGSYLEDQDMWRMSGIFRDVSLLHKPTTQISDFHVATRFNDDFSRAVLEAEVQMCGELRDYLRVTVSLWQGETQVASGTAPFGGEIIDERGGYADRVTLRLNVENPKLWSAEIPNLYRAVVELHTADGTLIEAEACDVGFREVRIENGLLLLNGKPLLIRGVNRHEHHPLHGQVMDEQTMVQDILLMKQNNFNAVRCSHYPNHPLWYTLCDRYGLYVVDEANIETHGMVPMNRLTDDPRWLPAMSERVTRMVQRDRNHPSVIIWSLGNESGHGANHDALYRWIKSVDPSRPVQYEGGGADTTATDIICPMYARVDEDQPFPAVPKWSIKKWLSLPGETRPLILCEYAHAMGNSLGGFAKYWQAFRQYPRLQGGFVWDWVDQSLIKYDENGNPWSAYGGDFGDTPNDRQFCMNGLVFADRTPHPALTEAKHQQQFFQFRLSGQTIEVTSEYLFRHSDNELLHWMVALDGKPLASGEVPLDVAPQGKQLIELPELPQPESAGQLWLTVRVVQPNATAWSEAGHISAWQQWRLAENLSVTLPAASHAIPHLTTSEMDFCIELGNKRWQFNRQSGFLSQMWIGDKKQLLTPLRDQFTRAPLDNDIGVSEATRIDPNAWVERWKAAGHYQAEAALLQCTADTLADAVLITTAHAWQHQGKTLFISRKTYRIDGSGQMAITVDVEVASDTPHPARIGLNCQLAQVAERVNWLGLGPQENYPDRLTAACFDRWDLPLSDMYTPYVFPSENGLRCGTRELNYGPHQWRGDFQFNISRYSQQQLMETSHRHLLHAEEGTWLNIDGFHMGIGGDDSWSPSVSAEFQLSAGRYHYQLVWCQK

NADPH oxidase 1 [7] = target: T3, NADPH oxidase 1 (Homo sapiens, UniProt Q9Y5S8); assay: Late-stage luminescence-based cell-based dose response assay to identify inhibitors of NADPH oxidase 1 (NOX1): Synthesized analogs 2.; type: functional
T3 sequence (Q9Y5S8 whole entry): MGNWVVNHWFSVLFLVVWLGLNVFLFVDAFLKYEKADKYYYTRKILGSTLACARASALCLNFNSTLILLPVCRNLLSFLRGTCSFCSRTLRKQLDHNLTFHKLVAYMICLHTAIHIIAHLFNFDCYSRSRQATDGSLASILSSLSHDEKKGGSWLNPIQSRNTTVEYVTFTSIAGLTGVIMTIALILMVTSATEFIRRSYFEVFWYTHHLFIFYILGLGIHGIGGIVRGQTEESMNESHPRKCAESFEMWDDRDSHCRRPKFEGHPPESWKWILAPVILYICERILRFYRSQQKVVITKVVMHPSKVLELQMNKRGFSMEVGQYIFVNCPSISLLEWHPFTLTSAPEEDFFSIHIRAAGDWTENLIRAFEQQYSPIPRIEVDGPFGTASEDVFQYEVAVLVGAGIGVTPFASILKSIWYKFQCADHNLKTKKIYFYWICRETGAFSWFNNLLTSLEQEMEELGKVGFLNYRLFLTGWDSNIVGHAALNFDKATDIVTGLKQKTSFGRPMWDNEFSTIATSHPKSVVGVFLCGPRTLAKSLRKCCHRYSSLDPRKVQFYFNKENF

NADPH oxidase 1 [8] = target: T3, NADPH oxidase 1; assay: Late-stage luminescence-based cell-based dose response assay to identify inhibitors of NADPH oxidase 1 (NOX1): Synthesized analogs 3.; type: functional
[9] = Luminescent dose response cell-based high throughput screening assay for inhibitors of the Janus kinase 2 mutant JAK2V617F. [Related pubchem assays: 1446 (Primary screen.), 1521 (Confirmation assay.), 1486 (Counter screen.)]; type: functional
[10] = target: 5-hydroxytryptamine receptor 1A (Homo sapiens, UniProt P08908); type: functional
5-hydroxytryptamine receptor 1A, sequence (P08908 whole entry): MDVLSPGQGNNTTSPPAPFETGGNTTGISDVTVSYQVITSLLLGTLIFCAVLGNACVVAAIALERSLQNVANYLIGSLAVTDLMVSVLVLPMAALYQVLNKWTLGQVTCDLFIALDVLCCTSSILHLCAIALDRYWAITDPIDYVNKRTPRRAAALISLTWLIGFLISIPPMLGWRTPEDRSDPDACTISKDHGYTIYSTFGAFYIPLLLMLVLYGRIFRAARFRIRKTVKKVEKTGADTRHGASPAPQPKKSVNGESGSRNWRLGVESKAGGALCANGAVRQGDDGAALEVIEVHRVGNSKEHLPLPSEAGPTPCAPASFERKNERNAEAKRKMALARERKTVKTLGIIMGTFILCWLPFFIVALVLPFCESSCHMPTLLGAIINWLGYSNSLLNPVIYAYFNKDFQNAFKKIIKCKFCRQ

[11] = target: Peroxisome proliferator-activated receptor gamma/Nuclear receptor corepressor 2 (Homo sapiens, UniProt P37231+Q9Y618); assay: Counterscreen for NR2E3 inverse agonists: TR-FRET-based biochemical high throughput dose response assay to identify inverse agonists of the interaction between peroxisome proliferator-activated receptor gamma (PPARg) and nuclear receptor co-repressor 2 (NCOR2).; type: functional
[12] = target: T1, Photoreceptor-specific nuclear receptor; assay: ligands suppressing NR2E3 nuclear receptor activity – biochemical, TR-FRET, dose response (AID 463256); type: functional
Protein Tat = Protein Tat (Human immunodeficiency virus type 1 group M subtype B (isolate HXB2)(HIV-1), UniProt P04608); type: functional;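 also: tat binding to TAR RNA read out by fluorescence polarization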
Protein Tat, sequence (P04608 whole entry): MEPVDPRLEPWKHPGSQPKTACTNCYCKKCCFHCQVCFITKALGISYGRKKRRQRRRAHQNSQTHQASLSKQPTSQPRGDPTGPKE

[13] = target: Sphingosine 1-phosphate receptor 2 (Homo sapiens, UniProt O95136); assay: Dose Response Cell Based Assay for Agonists of the S1P2 Receptor of Purchased Analogues. [Related pubchem assays: 729, 843, 854, 736 ]; type: functional
Sphingosine 1-phosphate receptor 2, sequence (O95136 whole entry): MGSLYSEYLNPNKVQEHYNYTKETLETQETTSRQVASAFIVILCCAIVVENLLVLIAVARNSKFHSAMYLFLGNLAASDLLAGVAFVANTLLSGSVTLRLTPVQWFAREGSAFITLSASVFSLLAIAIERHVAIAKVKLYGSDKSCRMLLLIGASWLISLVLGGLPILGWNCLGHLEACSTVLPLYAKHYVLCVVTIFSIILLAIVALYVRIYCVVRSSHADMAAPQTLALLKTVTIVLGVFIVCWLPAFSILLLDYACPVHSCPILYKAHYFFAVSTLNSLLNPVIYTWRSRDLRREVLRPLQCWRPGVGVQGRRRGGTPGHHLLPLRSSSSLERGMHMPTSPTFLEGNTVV

T1 sequence (Q9Y5X4 whole entry, the tested form may be a part): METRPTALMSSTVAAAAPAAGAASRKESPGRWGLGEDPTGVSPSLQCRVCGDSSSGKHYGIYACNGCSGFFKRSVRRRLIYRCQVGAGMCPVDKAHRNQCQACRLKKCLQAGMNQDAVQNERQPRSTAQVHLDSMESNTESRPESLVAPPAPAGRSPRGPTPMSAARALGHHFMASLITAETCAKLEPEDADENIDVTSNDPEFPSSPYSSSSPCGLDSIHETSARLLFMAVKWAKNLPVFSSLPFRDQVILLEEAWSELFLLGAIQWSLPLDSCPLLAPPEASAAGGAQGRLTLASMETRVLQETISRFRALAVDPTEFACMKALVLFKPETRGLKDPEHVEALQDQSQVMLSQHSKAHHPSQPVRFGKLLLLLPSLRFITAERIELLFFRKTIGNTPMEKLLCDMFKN

Cc1ccc(NC(=O)CSc2nnnn2-c2ccc3c(c2)OCO3)cc1C
IC50 [1]: 0.581 µM (active) | EC50 (Estrogen receptor): 8.47 µM (active)

C=C(C)COc1ccc(-c2nc(N)ncc2-c2ccc(OC)cc2)c(O)c1
IC50 [2]: > 69.5 µM (inactive) | IC50 [3]: > 69.5 µM (inactive) | IC50 [4]: 29.4 µM (not active)

O=C(c1cc2cc(Cl)ccc2[nH]1)N1CCN(Cc2ccc3c(c2)OCO3)CC1
CC50 [5]: > 40 µM (active) | IC50 [6]: > 100 µM (active) | IC50 (Beta-galactosidase): > 80 µM (inactive)

CN1c2ccc(Br)cc2Sc2cc(Br)ccc21
IC50 (NADPH oxidase 1 [7]): > 50 µM (not active)

CN1c2ccccc2Sc2cc(C(=O)c3ccccc3)ccc21
IC50 (NADPH oxidase 1 [8]): > 20 µM (not active)

Cc1nn2c(NCc3ccccn3)c3c(nc2c1-c1ccccc1)CCC3
IC50 [9]: 1.03 µM (active)

CCOC(=O)C1CCN(C(=O)Cc2c(C(=O)O)n(C)c3ccccc23)CC1
EC50 [10]: > 50 µM (not active)

Cc1cc(C)nc(NS(=O)(=O)c2ccc(NC(=O)CSc3nc[nH]n3)cc2)n1
IC50 [11]: > 39.8 µM (not active) | IC50 [12]: > 39.8 µM (not active)

COc1ccccc1N1C(=O)CC(Nc2ccc(N3CCOCC3)cc2)C1=O (stereo unspecified)
IC50 (Protein Tat): 20.1 µM (inconclusive)

Cc1cc(C(=O)COC(=O)C(O)c2ccccc2)c(C)n1Cc1ccccc1 (stereo unspecified)
EC50 [13]: > 30 µM (not active)
